In patent US20240335385A1, “IONIZABLE AMINE LIPIDS AND LIPID NANOPARTICLES” (Beam Therapeutics Inc., priority 2021, published 2024):

What was measured:
[1] = RNA encapsulation efficiency of LNPs by Ribogreen assay; assay type: physicochemical; details: LNP of 47.5% Ionizable Lipid:40% cholesterol:2.5% PEG-2000 DMG:10% DPSC, N/P ratio 4-8
Procedure: (§1) LNPs were prepared with 47.5% Ionizable Lipid (e.g., a compound provided herein):40% cholesterol:2.5% PEG-2000 DMG:10% DPSC and an N/P ratio range of 4-8. LNPs were formed by microfluidic mixing of the lipid and NA solutions using a Precision Nanosystems NanoAssemblr Spark or Benchtop series Instruments, according to the manufacturer's protocol. A ratio of aqueous to organic solvent of approximately 2:1 or 3:1 was maintained during mixing using differential flow rates. After mixing, LNPs were collected, diluted in phosphate buffer saline (PBS) or Tris-buffered saline (TBS) (approximately 1:1 v/v). Further buffer exchange was conducted using dialysis in PBS or TBS at 4° C. for 4 to 24 hours against a 20 kDa filter. After this initial dialysis, each individual LNP preparation was characterized via dynamic light scattering (DLS) to measure the size (e.g., diameter) and polydispersity. LNPs falling within specific diameter and polydispersity ranges were pooled, and further dialyzed against PBS or TBS at 4° C. for 1 to 4 hours against a 100 kDa dialysis cassette. After the second dialysis, LNPs were sterile filtered using 0.22 μm filter and stored at 4° C. for further use.
RNA concentration and encapsulation efficiency were determined by Ribogreen assay (BioTek Synergy LX plate reader).

[2] = LNP hydrodynamic diameter and polydispersity index by dynamic light scattering (DLS); assay type: physicochemical; details: LNP of 47.5% Ionizable Lipid:40% cholesterol:2.5% PEG-2000 DMG:10% DPSC, N/P ratio 4-8
Procedure: as §1
LNP hydrodynamic diameter and polydispersity index (PDI) were measured using high throughput dynamic light scattering (DLS) (Stunner, Unchained Labs). LNPs were diluted 1×TBS or PBS to an appropriate concentration and analyzed.

[3] = test system: liver; assay: LNP biodistribution screen, barcode fold above input (FAI) in liver; assay type: in vivo; details: mice, tissues 4 hours post-dose
Procedure: (§2) Male and female mice aged approximately 8-12 weeks were used for studies described by the present Example. Each mouse was temporarily restrained and pooled LNP was administered IV via tail vein injection in up to five animals per experiment. Age-matched mice was also used to administer vehicle (1×TBS) via tail vein injection in up to three animals per experiment. Additional routes of administration can also be conducted including intracerebral ventricular (ICV), intracisterna manga (ICM), intrathecal (IT), intramuscular (IM), nebulization, intranasal (IN), subcutaneous (SC), intraarticular, and intradermal (ID). At 4 hours post-dose, tissues including liver, spleen, bone marrow, testes, gastrocnemius, quadricep, lung, heart, kidney, and pancreas may be collected for analysis.
Liver, kidney, lung, and muscle (e.g. skeletal and cardiac) tissues may be mechanically, and then enzymatically digested using a mixture of proteinases, then passed through a 70 μm filter to generate single cell suspensions. Spleen tissues were mechanically digested to generate single cell suspensions. Tissues were treated with ACK buffer to lyse red blood cells, and then stained with fluorescently-labeled antibodies for flow cytometry and fluorescence-activated cell sorting (FACS). Commercially available antibodies were used in the present example. Using a BD FACSMelody (Becton Dickinson), samples were acquired via flow cytometry to generate gates prior to sorting. […]
To screen for preferential LNP delivery to a target tissues, the relative abundance of each barcode in one or more target tissues was measured and compared to the relative abundance of each barcode to its corresponding relative input abundance to determine fold above input (FAI) for each barcode. […]
The FAI is the normalized relative abundance of a barcode in a selected sample as compared to its frequency in the input. […] The FAI value of the barcode was calculated by normalizing the relative abundance in the barcode sequence counts in the isolated samples to its relative abundance in the administration input. […]

[4] = test system: lung; assay: LNP biodistribution screen, barcode fold above input (FAI) in lung; assay type: in vivo; details: mice, tissues 4 hours post-dose
Procedure: as §2
(§3) Liver, kidney, lung, and muscle (e.g. skeletal and cardiac) tissues may be mechanically, and then enzymatically digested using a mixture of proteinases, then passed through a 70 μm filter to generate single cell suspensions. Spleen tissues were mechanically digested to generate single cell suspensions. Tissues were treated with ACK buffer to lyse red blood cells, and then stained with fluorescently-labeled antibodies for flow cytometry and fluorescence-activated cell sorting (FACS). Commercially available antibodies were used in the present example. Using a BD FACSMelody (Becton Dickinson), samples were acquired via flow cytometry to generate gates prior to sorting. In general, the gating structure was size→singlet cells→live cells→cells of interest. T cells were defined as CD45+CD3+, monocytes are defined as CD45+CD11b+, and B cells are defined as CD45+CD19+. Endothelial cells were defined as CD31+, monocytes and Kupffer cells as CD45+CD11b+ and hepatocytes and myocytes were defined as CD31−/CD45− in the liver and muscle, respectively. Tissues from vehicle-dosed mice were used to set the gates for sorting.
(§4) RNA from tissues were extracted using the Reliaprep RNA extraction kit, and libraries were prepared using the RNAseq kit, and sequenced on either a MiSeq or NextSeq500.
(§5) To screen for preferential LNP delivery to a target tissues, the relative abundance of each barcode in one or more target tissues was measured and compared to the relative abundance of each barcode to its corresponding relative input abundance to determine fold above input (FAI) for each barcode. If the FAI of a barcode in a target tissue is above a threshold or above the FAI of a different LNP in the same tissue, the LNP can be identified as preferentially delivering to the target tissue.
(§6) The FAI is the normalized relative abundance of a barcode in a selected sample as compared to its frequency in the input. The FAI of a barcode indicates how a LNP's abundance changes relative to the rest of the LNP pool. The FAI value of the barcode was calculated by normalizing the relative abundance in the barcode sequence counts in the isolated samples to its relative abundance in the administration input. […] The FAI then indicates the performance of an LNP relative to the input LNP composition.
(§7) Each table describes data obtained from one screening experiment.

[5] = test system: spleen; assay: LNP biodistribution screen, barcode fold above input (FAI) in spleen; assay type: in vivo; details: mice, tissues 4 hours post-dose
Procedure: as §2, §3, §4, §5, §6, §7

[6] = screening experiment of Table 3, pooled LNP IV tail vein
[7] = screening experiment of Table 4, pooled LNP IV tail vein
[8] = screening experiment of Table 5, pooled LNP IV tail vein

Compound	Mean Encapsulation Efficiency (%) [1] [%]	Mean Diameter (nm) [2] [nm]	Mean PDI [2]	other results
CCCCCCCCOC(CCC(=O)OCCC(CCOC(=O)CCC(OCCCCCCCC)OCCCCCCCC)OC(=O)OCCCN(C)CC)OCCCCCCCC [Example 7-18, 3-(((3-(ethyl(methyl)amino)propoxy)carbonyl)oxy)pentane-1,5-diyl bis(4,4-bis(octyloxy)butanoate)]	90.0	76.7	0.16	
CC/C=C\CCCCOC(CCC(=O)OCCC(CCOC(=O)CCC(OCCCC/C=C\CC)OCCCC/C=C\CC)OC(=O)OCCCN(C)C)OCCCC/C=C\CC [Example 7-9, 3-(((3-(dimethylamino)propoxy)carbonyl)oxy)pentane-1,5-diyl bis(4,4-bis(((Z)-oct-5-en-1-yl)oxy)butanoate)]	89.0	92.9	0.13	
CC/C=C\CCCCOC(CCC(=O)OCCC(CCOC(=O)CCCCCCC/C=C\C/C=C\CCCCC)OC(=O)OCCCN(CC)CC)OCCCC/C=C\CC (stereo not shown) [Example 7-2, 5-((4,4-bis(((Z)-oct-5-en-1-yl)oxy)butanoyl)oxy)-3-(((3-(diethylamino)propoxy)carbonyl)oxy)pentyl (9Z,12Z)-octadeca-9,12-dienoate]	87.2	96.4	0.12	
CC/C=C\CCCCOC(CCC(=O)OCCC(CCOC(=O)CCCCCCC/C=C\C/C=C\CCCCC)OC(=O)OCCCN(C)CC)OCCCC/C=C\CC (stereo not shown) [Example 7-3, 5-((4,4-bis(((Z)-oct-5-en-1-yl)oxy)butanoyl)oxy)-3-(((3-(ethyl(methyl)amino)propoxy)carbonyl)oxy)pentyl (9Z,12Z)-octadeca-9,12-dienoate]	86.7	91.0	0.13	
CCCCCCCCOC(CCC(=O)OCCC(CCOC(=O)CCC(OCCCCCCCC)OCCCCCCCC)OC(=O)OCC1CCCN(CC)C1)OCCCCCCCC (stereo not shown) [Example 7-16, 3-((((1-ethylpiperidin-3-yl)methoxy)carbonyl)oxy)pentane-1,5-diyl bis(4,4-bis(octyloxy)butanoate)]	72.6	80.0	0.16	
CCCCC/C=C\C/C=C\CCCCCCCC(=O)OCCC(CCOC(=O)CCC(OCCCCCCCC)OCCCCCCCC)OC(=O)OCC1CCCN(CC)C1 (stereo not shown) [Example 7-11, 5-((4,4-bis(octyloxy)butanoyl)oxy)-3-((((1-ethylpiperidin-3-yl)methoxy)carbonyl)oxy)pentyl (9Z,12Z)-octadeca-9,12-dienoate]	86.3	76.5	0.13	
CCCCC/C=C\C/C=C\CCCCCCCCC(CCCCCCCC/C=C\C/C=C\CCCCC)OC(=O)CCCN(C)C [MC3, (6Z,9Z,28Z,31Z)-heptatriaconta-6,9,28,31-tetraen-19-yl 4-(dimethylamino) butanoate]				FAI (Liver) [3, 6]: 0.80; FAI (Liver) [3, 7]: 0.31; FAI (Lung) [4, 6]: 1.09; FAI (Lung) [4, 7]: 0.65; FAI (Lung) [4, 8]: 0.50; FAI (Spleen) [5, 6]: 1.32; FAI (Spleen) [5, 7]: 0.45; FAI (Spleen) [5, 8]: 0.39
CCCCC/C=C\C/C=C\CCCCCCCC(=O)OCCC(CCOC(=O)CCC(OCCCCCCCC)OCCCCCCCC)OC(=O)OCCCN(CC)CC (stereo not shown) [Example 7-12, 5-((4,4-bis(octyloxy)butanoyl)oxy)-3-(((3-(diethylamino)propoxy)carbonyl)oxy)pentyl (9Z,12Z)-octadeca-9,12-dienoate]	86.5	85.0	0.16	
5-((4,4-bis(((Z)-oct-5-en-1-yl)oxy)butanoyl)oxy)-3-((4-(pyrrolidin-1-yl)butanoyl)oxy)pentyl (9Z,12Z)-octadeca-9,12-dienoate [Example 7-5]	86.8	93.1	0.13	FAI (Liver) [3, 6]: 2.28; FAI (Lung) [4, 6]: 1.30; FAI (Lung) [4, 8]: 0.83; FAI (Spleen) [5, 6]: 1.29; FAI (Spleen) [5, 8]: 1.33
CCCCC/C=C\C/C=C\CCCCCCCC(=O)OCCC(CCOC(=O)CCC(OCCCCCCCC)OCCCCCCCC)OC(=O)OCCCN(C)CC (stereo not shown) [Example 7-13, 5-((4,4-bis(octyloxy)butanoyl)oxy)-3-(((3-(ethyl(methyl)amino)propoxy)carbonyl)oxy)pentyl (9Z,12Z)-octadeca-9,12-dienoate]	86.1	86.0	0.15	
CCCCC/C=C\C/C=C\CCCCCCCC(=O)OCCC(CCOC(=O)CCC(OCCCCCCCC)OCCCCCCCC)OC(=O)CCCN1CCCC1 (stereo not shown) [Example 7-15, 5-((4,4-bis(octyloxy)butanoyl)oxy)-3-((4-(pyrrolidin-1-yl)butanoyl)oxy)pentyl (9Z,12Z)-octadeca-9,12-dienoate]	87.0	80.8	0.16	
CC/C=C\CCCCOC(CCC(=O)OCCCCC(CCCCOC(=O)CCC(OCCCC/C=C\CC)OCCCC/C=C\CC)OC(=O)OCC1CCCN(CC)C1)OCCCC/C=C\CC (stereo not shown) [Example 7-34, 5-((((1-ethylpiperidin-3-yl)methoxy)carbonyl)oxy)nonane-1,9-diyl bis(4,4-bis(((Z)-oct-5-en-1-yl)oxy)butanoate)]	85.1	94.4	0.12	
CC/C=C\CCCCOC(CCC(=O)OCCC(CCOC(=O)CCCCCCC/C=C\C/C=C\CCCCC)OC(=O)OCCCN(C)C)OCCCC/C=C\CC (stereo not shown) [Example 7-4, 5-((4,4-bis(((Z)-oct-5-en-1-yl)oxy)butanoyl)oxy)-3-(((3-(dimethylamino)propoxy)carbonyl)oxy)pentyl (9Z,12Z)-octadeca-9,12-dienoate]	86.3	88.8	0.13	
CCCCC/C=C\C/C=C\CCCCCCCC(=O)OCCC(CCOC(=O)CCC(OCCCCCCCC)OCCCCCCCC)OC(=O)OCCCN(C)C (stereo not shown) [Example 7-14, 5-((4,4-bis(octyloxy)butanoyl)oxy)-3-(((3-(dimethylamino)propoxy)carbonyl)oxy)pentyl (9Z,12Z)-octadeca-9,12-dienoate]	87.2	84.3	0.18	
CC/C=C\CCCCOC(CCC(=O)OCCC(CCOC(=O)CCC(OCCCC/C=C\CC)OCCCC/C=C\CC)OC(=O)OCCCN(C)CC)OCCCC/C=C\CC [Example 7-8, 3-(((3-(ethyl(methyl)amino)propoxy)carbonyl)oxy)pentane-1,5-diyl bis(4,4-bis(((Z)-oct-5-en-1-yl)oxy)butanoate)]	89.9	110.4	0.09	
CC/C=C\CCCCOC(CCC(=O)OCCC(CCOC(=O)CCC(OCCCC/C=C\CC)OCCCC/C=C\CC)OC(=O)OCCCN(CC)CC)OCCCC/C=C\CC [Example 7-7, 3-(((3-(diethylamino)propoxy)carbonyl)oxy)pentane-1,5-diyl bis(4,4-bis(((Z)-oct-5-en-1-yl)oxy)butanoate)]	91.3	99.7	0.17	
